Source: the supplement of paper PMC10627819

Experiments:
S. aureus DSM 20231 [1] = assay: fitness (endpoint OD595 vs no drug) (fraction); higher = more growth
Procedure, shortened: (§1)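 Each well of a 384-well plate received 30 µl of culture at OD595 0.01, or 55 µl for S. pneumoniae. TSB, LB Lennox or CY served as media at 37 °C. OD595 was taken every 30 min for 14 h and corrected by subtracting the first reading. Fitness is the optical density at stationary-phase entry divided by the robust mean of no-drug controls, capped at 1.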

S. aureus Newman [2] = assay: as above
Procedure, shortened: as §1

S. pneumoniae D39V [3] = assay: as above
Procedure, shortened: as §1

B. subtilis 168 = assay: Bliss interaction score (quartile over a dose matrix) (fitness difference); higher = more antagonism (negative = synergy)
Procedure, shortened: (§2)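 Growth was read as OD595 when cultures entered stationary phase, and each value was divided by the plate's robust no-drug mean and capped at 1. This normalised ratio is the fitness value, and fitness for each single drug came from the combination data. The Bliss score subtracts the expected fitness, taken as the product, from the observed fitness and is given as quartiles across technical, biological and donor/recipient replicates.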

S. aureus DSM 20231 [4] = assay: as above
Procedure, shortened: as §2

S. aureus Newman [5] = assay: as above
Procedure, shortened: as §2

S. pneumoniae D39V [6] = assay: as above
Procedure, shortened: as §2

[7] = first compound 0.0125 µg/mL, partner 0.125 µg/mL
[8] = first compound 0.0125 µg/mL, partner 0.25 µg/mL
[9] = first compound 0.0125 µg/mL, partner 0.5 µg/mL
[10] = first compound 0.015 µg/mL, partner 0.03125 µg/mL
[11] = first compound 0.015 µg/mL, partner 0.0625 µg/mL
[12] = first compound 0.015 µg/mL, partner 0.125 µg/mL
[13] = first compound 0.025 µg/mL, partner 0.125 µg/mL
[14] = first compound 0.025 µg/mL, partner 0.25 µg/mL
[15] = first compound 0.025 µg/mL, partner 0.5 µg/mL
[16] = first compound 0.03 µg/mL, partner 0.03125 µg/mL
[17] = first compound 0.03 µg/mL, partner 0.0625 µg/mL
[18] = first compound 0.03 µg/mL, partner 0.125 µg/mL
[19] = first compound 0.05 µg/mL, partner 0.125 µg/mL
[20] = first compound 0.05 µg/mL, partner 0.25 µg/mL
[21] = first compound 0.05 µg/mL, partner 0.5 µg/mL
[22] = first compound 0.06 µg/mL, partner 0.03125 µg/mL
[23] = first compound 0.06 µg/mL, partner 0.0625 µg/mL
[24] = first compound 0.06 µg/mL, partner 0.125 µg/mL
[25] = first compound 0.1875 µg/mL, partner 0.0625 µg/mL
[26] = first compound 0.1875 µg/mL, partner 0.125 µg/mL
[27] = first compound 0.1875 µg/mL, partner 0.25 µg/mL
[28] = first compound 0.1875 µg/mL, partner 0.5 µg/mL, one replicate
[29] = first compound 0.1875 µg/mL, partner 1 µg/mL, one replicate
[30] = first compound 0.375 µg/mL, partner 0.0625 µg/mL
[31] = first compound 0.375 µg/mL, partner 0.125 µg/mL
[32] = first compound 0.375 µg/mL, partner 0.25 µg/mL
[33] = first compound 0.375 µg/mL, partner 0.5 µg/mL, one replicate
[34] = first compound 0.375 µg/mL, partner 1 µg/mL, one replicate
[35] = first compound 0.75 µg/mL, partner 0.0625 µg/mL
[36] = first compound 0.75 µg/mL, partner 0.125 µg/mL
[37] = first compound 0.75 µg/mL, partner 0.25 µg/mL
[38] = first compound 0.75 µg/mL, partner 0.5 µg/mL, one replicate
[39] = first compound 0.75 µg/mL, partner 1 µg/mL, one replicate
[40] = first compound 0.125 µg/mL, partner 0.0625 µg/mL
[41] = first compound 0.125 µg/mL, partner 0.125 µg/mL
[42] = first compound 0.125 µg/mL, partner 0.25 µg/mL
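Throughout, for Bliss interaction score (quartile over a dose matrix): first quartile when negative (synergy) and third quartile when positive (antagonism).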

CCC[C@@H]1C[C@@H](C(=O)N[C@@H]([C@H]2O[C@H](SC)[C@H](O)[C@@H](O)[C@H]2O)[C@H](C)Cl)N(C)C1 [Clindamycin] + CN[C@H](CC(C)C)C(=O)N[C@H]1C(=O)N[C@@H](CC(N)=O)C(=O)N[C@H]2C(=O)N[C@H]3C(=O)N[C@H](C(=O)N[C@H](C(=O)O)c4cc(O)cc(O)c4-c4cc3ccc4O)[C@H](O)c3ccc(c(Cl)c3)Oc3cc2cc(c3O[C@@H]2O[C@H](CO)[C@@H](O)[C@H](O)[C@H]2O[C@H]2C[C@](C)(N)[C@H](O)[C@H](C)O2)Oc2ccc(cc2Cl)[C@H]1O [Vancomycin]
fitness (S. aureus DSM 20231 [1]; first compound 0.125 µg/mL, partner 0.1875 µg/mL): 0.0642
fitness (S. aureus DSM 20231 [1]; first compound 0.125 µg/mL, partner 0.375 µg/mL): 0.0657
fitness (S. aureus DSM 20231 [1]; first compound 0.125 µg/mL, partner 0.75 µg/mL): 0.0731
fitness (S. aureus Newman [2]; first compound 0.0312 µg/mL, partner 0.1875 µg/mL): 0.764
fitness (S. aureus Newman [2]; first compound 0.0312 µg/mL, partner 0.375 µg/mL): 0.761
fitness (S. aureus Newman [2]; first compound 0.0312 µg/mL, partner 0.75 µg/mL): 0.762
fitness (S. pneumoniae D39V [3]; [7]): 0.782
fitness (S. pneumoniae D39V [3]; [8]): 0.702
fitness (S. pneumoniae D39V [3]; [9]): 0.0792
fitness (S. pneumoniae D39V [3]; [10]): 0.89
fitness (S. pneumoniae D39V [3]; [11]): 0.844
fitness (S. pneumoniae D39V [3]; [12]): 0.63
fitness (S. pneumoniae D39V [3]; [13]): 0.544
fitness (S. pneumoniae D39V [3]; [14]): 0.47
fitness (S. pneumoniae D39V [3]; [15]): 0.0715
fitness (S. pneumoniae D39V [3]; [16]): 0.738
fitness (S. pneumoniae D39V [3]; [17]): 0.7
fitness (S. pneumoniae D39V [3]; [18]): 0.526
fitness (S. pneumoniae D39V [3]; [19]): 0.296
fitness (S. pneumoniae D39V [3]; [20]): 0.237
fitness (S. pneumoniae D39V [3]; [21]): 0.0635
fitness (S. pneumoniae D39V [3]; [22]): 0.501
fitness (S. pneumoniae D39V [3]; [23]): 0.47
fitness (S. pneumoniae D39V [3]; [24]): 0.327
Bliss interaction score (B. subtilis 168): 0.0503
Bliss interaction score (S. aureus DSM 20231 [4]): 0.0292
Bliss interaction score (S. aureus Newman [5]): 0.135
Bliss interaction score (S. pneumoniae D39V [6]): 0.111

CN[C@H](CC(C)C)C(=O)N[C@H]1C(=O)N[C@@H](CC(N)=O)C(=O)N[C@H]2C(=O)N[C@H]3C(=O)N[C@H](C(=O)N[C@H](C(=O)O)c4cc(O)cc(O)c4-c4cc3ccc4O)[C@H](O)c3ccc(c(Cl)c3)Oc3cc2cc(c3O[C@@H]2O[C@H](CO)[C@@H](O)[C@H](O)[C@H]2O[C@H]2C[C@](C)(N)[C@H](O)[C@H](C)O2)Oc2ccc(cc2Cl)[C@H]1O [Vancomycin] + CC1=C\[C@@H](O)CC(=O)Cc2nc(co2)C(=O)N2CCC=C2C(=O)O[C@H](C(C)C)[C@H](C)/C=C/C(=O)NC\C=C\1 [Virginiamycin M1]
fitness (S. aureus DSM 20231 [1]; [25]): ≥ 1
fitness (S. aureus DSM 20231 [1]; [26]): ≥ 1
fitness (S. aureus DSM 20231 [1]; [27]): 0.998
fitness (S. aureus DSM 20231 [1]; [28]): 0.766
fitness (S. aureus DSM 20231 [1]; [29]): 0.687
fitness (S. aureus DSM 20231 [1]; [30]): ≥ 1
fitness (S. aureus DSM 20231 [1]; [31]): ≥ 1
fitness (S. aureus DSM 20231 [1]; [32]): ≥ 1
fitness (S. aureus DSM 20231 [1]; [33]): 0.727
fitness (S. aureus DSM 20231 [1]; [34]): 0.733
fitness (S. aureus DSM 20231 [1]; [35]): ≥ 1
fitness (S. aureus DSM 20231 [1]; [36]): ≥ 1
fitness (S. aureus DSM 20231 [1]; [37]): ≥ 1
fitness (S. aureus DSM 20231 [1]; [38]): 0.795
fitness (S. aureus DSM 20231 [1]; [39]): 0.791
fitness (S. aureus Newman [2]; [25]): 0.991
fitness (S. aureus Newman [2]; [26]): 0.994
fitness (S. aureus Newman [2]; [27]): 0.99
fitness (S. aureus Newman [2]; [28]): 0.913
fitness (S. aureus Newman [2]; [29]): 0.98
fitness (S. aureus Newman [2]; first compound 0.1875 µg/mL, partner 2 µg/mL, one replicate): 0.883
fitness (S. aureus Newman [2]; [30]): ≥ 1
fitness (S. aureus Newman [2]; [31]): 0.988
fitness (S. aureus Newman [2]; [32]): 0.977
fitness (S. aureus Newman [2]; [33]): 0.887
fitness (S. aureus Newman [2]; [34]): 0.97
fitness (S. aureus Newman [2]; first compound 0.375 µg/mL, partner 2 µg/mL, one replicate): 0.861
fitness (S. aureus Newman [2]; [35]): ≥ 1
fitness (S. aureus Newman [2]; [36]): 0.995
fitness (S. aureus Newman [2]; [37]): 0.962
fitness (S. aureus Newman [2]; [38]): 0.815
fitness (S. aureus Newman [2]; [39]): 0.93
fitness (S. aureus Newman [2]; first compound 0.75 µg/mL, partner 2 µg/mL, one replicate): 0.903
fitness (S. pneumoniae D39V [3]; first compound 0.03125 µg/mL, partner 0.5 µg/mL): ≥ 1
fitness (S. pneumoniae D39V [3]; first compound 0.03125 µg/mL, partner 1 µg/mL): ≥ 1
fitness (S. pneumoniae D39V [3]; first compound 0.03125 µg/mL, partner 2 µg/mL): 0.982
fitness (S. pneumoniae D39V [3]; first compound 0.0625 µg/mL, partner 0.5 µg/mL): 0.982
fitness (S. pneumoniae D39V [3]; first compound 0.0625 µg/mL, partner 1 µg/mL): 0.97
fitness (S. pneumoniae D39V [3]; first compound 0.0625 µg/mL, partner 2 µg/mL): 0.971
fitness (S. pneumoniae D39V [3]; first compound 0.125 µg/mL, partner 0.15 µg/mL, one replicate): ≥ 1
fitness (S. pneumoniae D39V [3]; first compound 0.125 µg/mL, partner 0.3 µg/mL, one replicate): ≥ 1
fitness (S. pneumoniae D39V [3]; first compound 0.125 µg/mL, partner 0.5 µg/mL): 0.988
fitness (S. pneumoniae D39V [3]; first compound 0.125 µg/mL, partner 1 µg/mL): 0.939
fitness (S. pneumoniae D39V [3]; first compound 0.125 µg/mL, partner 2 µg/mL): 0.945
fitness (S. pneumoniae D39V [3]; first compound 0.25 µg/mL, partner 0.15 µg/mL, one replicate): 0.946
fitness (S. pneumoniae D39V [3]; first compound 0.25 µg/mL, partner 0.3 µg/mL, one replicate): 0.993
fitness (S. pneumoniae D39V [3]; first compound 0.25 µg/mL, partner 0.5 µg/mL, one replicate): 0.873
fitness (S. pneumoniae D39V [3]; first compound 0.25 µg/mL, partner 1 µg/mL, one replicate): 0.681
fitness (S. pneumoniae D39V [3]; first compound 0.25 µg/mL, partner 2 µg/mL): 0.881
fitness (S. pneumoniae D39V [3]; first compound 0.5 µg/mL, partner 0.15 µg/mL, one replicate): 0.355
fitness (S. pneumoniae D39V [3]; first compound 0.5 µg/mL, partner 0.3 µg/mL, one replicate): 0.71
fitness (S. pneumoniae D39V [3]; first compound 0.5 µg/mL, partner 0.5 µg/mL, one replicate): 0.366
fitness (S. pneumoniae D39V [3]; first compound 0.5 µg/mL, partner 1 µg/mL, one replicate): 0.0772
Bliss interaction score (B. subtilis 168): -0.0585
Bliss interaction score (S. aureus DSM 20231 [4]): 0.0837
Bliss interaction score (S. aureus Newman [5]): 0.0634
Bliss interaction score (S. pneumoniae D39V [6]): 0.128

CCC[C@@H]1C[C@@H](C(=O)N[C@@H]([C@H]2O[C@H](SC)[C@H](O)[C@@H](O)[C@H]2O)[C@H](C)Cl)N(C)C1 [Clindamycin] + Cn1nnc(-c2ccc(-c3ccc(N4C[C@H](CO)OC4=O)cc3F)cn2)n1 [Tedizolid]
fitness (S. aureus DSM 20231 [1]; first compound 0.0312 µg/mL, partner 0.25 µg/mL): 0.314
fitness (S. aureus DSM 20231 [1]; first compound 0.0625 µg/mL, partner 0.0625 µg/mL): 0.0876
fitness (S. aureus DSM 20231 [1]; first compound 0.0625 µg/mL, partner 0.125 µg/mL): 0.0753
fitness (S. aureus DSM 20231 [1]; first compound 0.0625 µg/mL, partner 0.25 µg/mL): 0.0709
fitness (S. aureus DSM 20231 [1]; [40]): 0.0391
fitness (S. aureus DSM 20231 [1]; [41]): 0.0406
fitness (S. aureus DSM 20231 [1]; [42]): 0.0164
fitness (S. aureus Newman [2]; [40]): 0.0736
fitness (S. aureus Newman [2]; [41]): 0.0453
fitness (S. aureus Newman [2]; [42]): 0.0444
fitness (S. pneumoniae D39V [3]; [7]): 0.551
fitness (S. pneumoniae D39V [3]; [8]): 0.434
fitness (S. pneumoniae D39V [3]; [9]): 0.201
fitness (S. pneumoniae D39V [3]; [10]): 0.901
fitness (S. pneumoniae D39V [3]; [11]): 0.918
fitness (S. pneumoniae D39V [3]; [12]): 0.778
fitness (S. pneumoniae D39V [3]; [13]): 0.375
fitness (S. pneumoniae D39V [3]; [14]): 0.33
fitness (S. pneumoniae D39V [3]; [15]): 0.149
fitness (S. pneumoniae D39V [3]; [16]): 0.781
fitness (S. pneumoniae D39V [3]; [17]): 0.814
fitness (S. pneumoniae D39V [3]; [18]): 0.721
fitness (S. pneumoniae D39V [3]; [19]): 0.224
fitness (S. pneumoniae D39V [3]; [20]): 0.166
fitness (S. pneumoniae D39V [3]; [21]): 0.097
fitness (S. pneumoniae D39V [3]; [22]): 0.641
fitness (S. pneumoniae D39V [3]; [23]): 0.646
fitness (S. pneumoniae D39V [3]; [24]): 0.605
Bliss interaction score (B. subtilis 168): 0.134
Bliss interaction score (S. aureus DSM 20231 [4]): -0.024
Bliss interaction score (S. aureus Newman [5]): -0.0925
Bliss interaction score (S. pneumoniae D39V [6]): 0.115
